Test results as given in ChEMBL document CHEMBL3797180, “Squaramides with cytotoxic activity against human gastric carcinoma cells HGC-27: synthesis and mechanism of action” (Medchemcomm, 2016).
Calls of active or inactive are those of the source. The rule behind the calls is not given here.

Key:
HGC-27 [1] = assay: Induction of apoptosis in HGC27 cells at 8 uM after 24 hrs in presence of caspase 9 inhibitor Z-LEHD-FMK by Annexin-V-FITC/propidium iodide staining-based flow cytometry; type: functional, cell-based; conditions: Homo sapiens
Vero [2] = assay: Cytotoxicity against African green monkey Vero cells by MTT assay; type: cell-based; conditions: Chlorocebus sabaeus
HEK293 = assay: Cytotoxicity against HEK293 cells by MTT assay; type: cell-based; conditions: Homo sapiens
HGC-27 [3] = assay: Induction of apoptosis in HGC27 cells at 8 uM after 24 hrs in presence of pan-caspase inhibitor Z-VAD-FMK by Annexin-V-FITC/propidium iodide staining-based flow cytometry; type: functional, cell-based; conditions: Homo sapiens
HeLa [4] = assay: Cytotoxicity against human HeLa cells assessed as inhibition of cell viability at 20 uM after 24 hrs by MTT assay; type: functional, cell-based
[5] = Cytotoxicity against HGC27 cells after 48 hrs by MTT assay; type: functional, cell-based; conditions: Homo sapiens, HGC-27, 48 h
HGC-27 [6] = assay: (§1) Cytotoxicity against HGC27 cells after 24 hrs by MTT assay; type: functional, cell-based; conditions: Homo sapiens
[7] = as §1; type: functional, cell-based; conditions: Homo sapiens, HGC-27, 24 h
HGC-27 [8] = assay: Induction of apoptosis in HGC27 cells at 2 uM co-treated with autophagy inhibitor 3-MA after 24 hrs by Annexin-V-FITC/propidium iodide staining-based flow cytometry; type: functional, cell-based; conditions: Homo sapiens
HGC-27 [9] = assay: Induction of apoptosis in HGC27 cells assessed as apoptotic cells at 1 uM after 24 hrs by Annexin-V-FITC/propidium iodide staining-based flow cytometry (reference value: 6.7%); type: functional, Homo sapiens
HGC-27 [10] = assay: Induction of apoptosis in HGC27 cells assessed as apoptotic cells at 2.5 uM after 24 hrs by Annexin-V-FITC/propidium iodide staining-based flow cytometry (reference value: 6.7%); type: functional, Homo sapiens
[11] = Cell cycle arrest in HGC27 cells assessed as accumulation at G2/GM phase after 24 hrs at 500 nM by propidium idoide staining based flow cytometric analysis; type: functional; conditions: Homo sapiens, HGC-27
HeLa [12] = assay: Cytotoxicity against human HeLa cells assessed as inhibition of cell viability at 100 uM after 24 hrs by MTT assay; type: functional, cell-based
[13] = Cytotoxicity against human U87 cells by MTT assay; type: functional, cell-based, U-87MG ATCC; conditions: U-87 MG
HGC-27 [14] = assay: Induction of apoptosis in HGC27 cells at 8 uM after 24 hrs in presence of cathepsin-B inhibitor-3 by Annexin-V-FITC/propidium iodide staining-based flow cytometry; type: functional, cell-based; conditions: Homo sapiens
HGC-27 [15] = assay: Induction of apoptosis in HGC27 cells assessed as necrotic cells at 8 uM after 24 hrs in presence of cathepsin-B inhibitor-3 by Annexin-V-FITC/propidium iodide staining-based flow cytometry; type: functional, cell-based; conditions: Homo sapiens
[16] = Cell cycle arrest in HGC27 cells assessed as decrease in G2/M phase population after 24 hrs at 5 uM by propidium idoide staining based flow cytometric analysis; type: functional; conditions: Homo sapiens, HGC-27
HGC-27 [17] = assay: Induction of reactive oxygen species formation in HGC27 cells at 1.4 to 24 uM after 5 hrs using DCFH-DA probe by spectrofluorimetry; type: functional, cell-based; conditions: Homo sapiens
MDCK [18] = assay: Cytotoxicity against MDCK cells assessed as cellular ATP level after 24 hrs by SRB assay; type: cell-based; conditions: Canis lupus familiaris
Vero [19] = assay: Cytotoxicity against African green monkey Vero cells assessed as cellular ATP level after 24 hrs by SRB assay; type: cell-based; conditions: Chlorocebus sabaeus
HGC-27 [20] = assay: Induction of autophagy in HGC27 cells assessed as increase in LC3-2 level after 24 hrs by Western blotting method; type: functional, cell-based; conditions: Homo sapiens
[21] = Cell cycle arrest in HGC27 cells assessed as decrease in S-phase population after 24 hrs at 5 uM by propidium idoide staining based flow cytometric analysis; type: functional; conditions: Homo sapiens, HGC-27
[22] = Cytotoxicity against human T98 cells by MTT assay; type: functional, cell-based
HGC-27 [23] = assay: Induction of apoptosis in HGC27 cells assessed as increase in necrotic cells at 2 uM co-treated with autophagy inhibitor chloroquine after 24 hrs by Annexin-V-FITC/propidium iodide staining-based flow cytometry; type: functional, cell-based; conditions: Homo sapiens
HGC-27 [24] = assay: Induction of apoptosis in HGC27 cells at 8 uM after 24 hrs in presence of caspase 8 inhibitor Z-IETD-FMK by Annexin-V-FITC/propidium iodide staining-based flow cytometry; type: functional, cell-based; conditions: Homo sapiens
HGC-27 [25] = assay: Induction of apoptosis in HGC27 cells assessed as reduction in mitochondrial membrane potential at 2 and 8 uM after 24 hrs by JC-1 staining based flow cytometric analysis; type: functional, cell-based; conditions: Homo sapiens
HGC-27 [26] = assay: Induction of apoptosis in HGC27 cells assessed as apoptotic cells at 8 uM after 24 hrs by Annexin-V-FITC/propidium iodide staining-based flow cytometry (reference value: 6.7%); type: functional, Homo sapiens
HGC-27 [27] = assay: Induction of apoptosis in HGC27 cells assessed as increase in necrotic cells at 2 uM co-treated with autophagy inhibitor 3-MA after 24 hrs by Annexin-V-FITC/propidium iodide staining-based flow cytometry; type: functional, cell-based; conditions: Homo sapiens
MDCK [28] = assay: Cytotoxicity against MDCK cells by MTT assay; type: cell-based; conditions: Canis lupus familiaris
[29] = Cytotoxicity against HGC27 cells assessed as cellular ATP level after 24 hrs by SRB assay; type: functional, cell-based; conditions: Homo sapiens, HGC-27, 24 h
HGC-27 [30] = assay: Induction of apoptosis in HGC27 cells at 2 uM co-treated with autophagy inhibitor chloroquine after 24 hrs by Annexin-V-FITC/propidium iodide staining-based flow cytometry; type: functional, cell-based; conditions: Homo sapiens
HeLa [31] = assay: Cytotoxicity against human HeLa cells after 24 hrs by MTT assay; type: functional, cell-based
[32] = Cell cycle arrest in HGC27 cells assessed as accumulation at G0/G1 phase after 24 hrs at 5 uM by propidium idoide staining based flow cytometric analysis; type: functional; conditions: Homo sapiens, HGC-27
HGC-27 [33] = assay: Induction of apoptosis in HGC27 cells assessed as apoptotic cells after 24 hrs by Annexin-V-FITC/propidium iodide staining-based flow cytometry; type: functional, cell-based; conditions: Homo sapiens
HGC-27 [34] = assay: Induction of autophagy in HGC27 cells assessed as increase in LC3-2 level after 24 hrs by Western blotting method in presence of lysosomal dysfunction inducer PI; type: functional, cell-based; conditions: Homo sapiens
HGC-27 [35] = assay: Induction of apoptosis in HGC27 cells assessed as necrotic cells at 8 uM after 24 hrs in presence of RIP1 inhibitor necrostatin-1 by Annexin-V-FITC/propidium iodide staining-based flow cytometry; type: functional, cell-based; conditions: Homo sapiens

O=c1c(Nc2cc(C(F)(F)F)cc(C(F)(F)F)c2)c(N[C@@H](c2ccccc2)C(O)(c2ccccc2)c2ccccc2)c1=O
Activity (HGC-27 [1]): inactive
IC50 (Vero [2]): 33.4 µM
IC50 (HEK293): 9.03 µM
Activity (HGC-27 [3]): Active
inhibition (HeLa [4]): Active
IC50 [5]: 0.66 µM
Activity (HGC-27 [6]): Dose-dependent effect
IC50 [7]: 1.81 µM
Activity (HGC-27 [8]): Active
Activity (HGC-27 [9]): 2.4%
Activity (HGC-27 [10]): 24.7%
Activity [11]: Active
inhibition (HeLa [12]): Active
IC50 [13]: 60.2 µM
Activity (HGC-27 [14]): Active
Activity (HGC-27 [15]): Active
Activity [16]: Active
Activity (HGC-27 [17]): inactive
IC50 (MDCK [18]): 149 µM
IC50 (Vero [19]): 73.9 µM
Activity (HGC-27 [20]): Active
Activity [21]: Active
IC50 [22]: 7.15 µM
Activity (HGC-27 [23]): Active
Activity (HGC-27 [24]): Active
Activity (HGC-27 [25]): Active
Activity (HGC-27 [26]): 60.1%
Activity (HGC-27 [27]): Active
IC50 (MDCK [28]): 70.2 µM
IC50 [29]: 9.74 µM
Activity (HGC-27 [30]): Active
IC50 (HeLa [31]): 34.6 µM
Activity [32]: Active
Activity (HGC-27 [33]): Dose-dependent effect
Activity (HGC-27 [34]): Active
Activity (HGC-27 [35]): Active
